Data on eight molecules can be found in patent US10517965B2, “Bioorthogonal turn-on probes” (The General Hospital Corporation, priority 2013, dated 2019).

The test system of data set [1] is epidermal growth factor receptor (EGFR) on A431 cells. In words: No-wash fluorogenic imaging of EGFR on A431 cells after cetuximab-TCO. The data set is classed as cell-based, human. From the text:
(§1) Microscope: Multichannel images were collected on an Olympus Fluoview FV1000 confocal laser microscope. Coumarin probes were excited with a 405 nm laser, with alternate excitation sources used as relevant for reference channels, paired with appropriate emission filter sets. Cell culture: A-431 cells (ATCC CRL-1555) and COS-1 cells (ATCC CRL-1650) were cultivated in Dulbecco's Modified Eagle's Medium (DMEM), supplemented with 10% fetal bovine serum and grown in standard culture conditions in 10 cm dishes. OVCA-429 cells were cultivated in RPMI-1640 supplemented with 10% fetal bovine serum under standard culture conditions. For imaging experiments cells were plated on Millicell EZ slides (EMD Millipore, Inc, Billerica, Mass.). Antibody reagents: Monoclonal antibody-TCO conjugates were prepared by incubation of commercially available monoclonal antibodies TCO-PEG4-NHS (Click Chemistry Tools, Scottsdale, Ariz.). Anti EGFR (Cetuximab, Imclone). Anti cytochrome c oxidase (COXIV, Cell signaling Technology, #4844, Danvers, Mass.). An aliquot of antibody in the manufacturer-supplied storage solution was buffer exchanged into PBS with 10 mM sodium bicarbonate, pH 8.0, on a 40K ZebaSpin desalting column (0.5 mL, Thermo Fisher Scientific, Rockford, Ill.). To this solution was added 20 equivalents of TCO-PEG4-NHS; the mixture was allowed to react at 25° C. for 30 minutes, with continuous shaking. The reaction mix was loaded onto a 40K ZebaSpin column to remove organic solvent and small molecule fractions; this eluate was loaded onto a second 40K ZebaSpin column to ensure comprehensive removal of any excess TCO. EGFR Imaging: Fixed A431 cells were prepared by treatment with 4% paraformaldehyde solution (10 min, room temperature), followed by 3 washes with PBS. Fixed cells were stored at 4° C. until the time of imaging, when they were incubated for 20 minutes with 20 μg/mL cetuximab-TCO, then rinsed three times with PBS. […] The concentration of stock solutions in PBS were calculated by absorbance spectrometry, based on the measured extinction coefficient of 19000 M^−1 cm^−1. […]

Data set [2] can be described thus: Fluorogenic characterization of HELIOS probes on reaction with TCOc. The data set is classed as physicochemical. The conditions noted are these: for peak turn-on ratio upon reaction with TCOc: PBS; for Fluorescence Enhancement: fluorogenic turn-on ratio of the Me-tetrazines upon reaction with TCOc. How it is done: As described above, the fluorescence purity of all HELIOS compounds was verified by LCMS prior to quantitative activation experiments, for which a fresh aliquot of the fluorophore collected from the analytical HPLC elution was used. Exceptionally pure material is required to obtain the peak measured turn-on ratios, as the presence of trace bright contaminants limits the maximum observable ratio.
(§2) Stock solutions of the freshly-purified tetrazine dyes were prepared in MeCN and stored in the dark at 4° C. during experiments. For fluorescence measurements, the probes diluted into 2 mL or 3 mL of phosphate buffered saline (PBS), pH 7.4 (Corning, cellgro) in a standard 10 mm quartz cuvette. Working at peak excitation and emission wavelengths for each probe, data were collected as a continuous time series to enable accurate measurement of the baseline intensity values and optimize signal to noise. Fluorescence experiments were conducted at a range of dye concentrations spanning 100 nM-750 nM, with 500 nM being a typical working concentration. The time to peak turn on ratio (but not the final magnitude) is a function of the added TCOc (see Example 25) concentration; for the time courses presented herein, 10 μM TCOc was used. Measurements of solvent and pre-activation emission intensity for baseline values were collected serially over at least 30 seconds, prior to addition of TCOc to initiate the fluorogenic reaction. After addition of TCOc (typically a 20-fold excess, as above), the fluorescence emission intensity was monitored until a plateau was reached. Activation ratios were calculated from the peak emission intensity of the dihydropyridazine product and the corresponding baseline intensity over background. Data were normalized to set the initial background fluorescence of the HELIOS probe to one unit over background, as plotted in FIG. 9 in the main text.

Data set [3] is described as follows: Peak excitation/emission wavelengths and extinction coefficient in PBS. The conditions noted are these: for ε: at peak excitation wavelength in PBS, pH 7.4, in M-1cm-1 (unit assumed); for Peak Em Wavelength: emission; for Peak Ex Wavelength: excitation. It counts as physicochemical. How it is done: as §2
Microscope: Multichannel images were collected on an Olympus Fluoview FV1000 confocal laser microscope. Coumarin probes were excited with a 405 nm laser, with alternate excitation sources used as relevant for reference channels, paired with appropriate emission filter sets. Cell culture: A-431 cells (ATCC CRL-1555) and COS-1 cells (ATCC CRL-1650) were cultivated in Dulbecco's Modified Eagle's Medium (DMEM), supplemented with 10% fetal bovine serum and grown in standard culture conditions in 10 cm dishes. OVCA-429 cells were cultivated in RPMI-1640 supplemented with 10% fetal bovine serum under standard culture conditions. For imaging experiments cells were plated on Millicell EZ slides (EMD Millipore, Inc, Billerica, Mass.). Antibody reagents: Monoclonal antibody-TCO conjugates were prepared by incubation of commercially available monoclonal antibodies TCO-PEG4-NHS (Click Chemistry Tools, Scottsdale, Ariz.). Anti EGFR (Cetuximab, Imclone). Anti cytochrome c oxidase (COXIV, Cell signaling Technology, #4844, Danvers, Mass.). An aliquot of antibody in the manufacturer-supplied storage solution was buffer exchanged into PBS with 10 mM sodium bicarbonate, pH 8.0, on a 40K ZebaSpin desalting column (0.5 mL, Thermo Fisher Scientific, Rockford, Ill.). To this solution was added 20 equivalents of TCO-PEG4-NHS; the mixture was allowed to react at 25° C. for 30 minutes, with continuous shaking. The reaction mix was loaded onto a 40K ZebaSpin column to remove organic solvent and small molecule fractions; this eluate was loaded onto a second 40K ZebaSpin column to ensure comprehensive removal of any excess TCO. EGFR Imaging: Fixed A431 cells were prepared by treatment with 4% paraformaldehyde solution (10 min, room temperature), followed by 3 washes with PBS. Fixed cells were stored at 4° C. until the time of imaging, when they were incubated for 20 minutes with 20 μg/mL cetuximab-TCO, then rinsed three times with PBS. For optimal image quality, HELIOS 370H probe must be purified on the day of imaging by reversed phase HPLC-MS. The concentration of stock solutions in PBS were calculated by absorbance spectrometry, based on the measured extinction coefficient of 19000 M^−1 cm^−1. Prior to imaging, the purified stock solutions were subjected to turn-on testing, verifying a fluorogenic turn-on ratio of >1000-fold for HELIOS 370H. For imaging experiments, the acetonitrile stocks were diluted into PBS to yield a 100 nM solution. […]

The subject of data set [4] is mitochondria of OVCA-429 cells. In words: Mitochondria imaging of OVCA-429 cells after anti-COX IV-TCO. It counts as cell-based.
Excerpt: as §1

A short description of data set [5]: Solubility in aqueous media. It counts as physicochemical. The conditions noted are these: PBS, micromolar concentrations.
Data set [6] can be described thus: Quantum yield determination, quinine sulfate reference. The conditions noted are these: dihydropyridazine product after complete reaction with TCOc in PBS pH 7.4; quinine sulfate standard (Φ = 0.546). The data set is classed as physicochemical. The source says:
Quantum yield determinations: quinine sulfate dihydrate (Fluorescence Reference Standard grade, AnaSpec, Inc) in 0.5 M H2SO4 was used as a reference, with an excitation wavelength of 370 nm; a value of 0.546 was used for the reference quantum yield (Eaton, D. F., Pure and Applied Chemistry, 1988 60(7), 1107-1114). Calculations were made according to the methods described by Crosby and Demas (Chemical Reviews, 1971, 75(8), 991-1024).

The nature of data set [7]: Solvent polarity effects on fluorescence emission of the native probe. It counts as physicochemical. The note with it: PBS pH 7.4, acetonitrile, toluene. How it is done:
FIG. 5 provides the absorption and fluorescence emission spectra of 4b in toluene (dielectric constant 2.4) and acetonitrile (dielectric constant 37.5). Samples were prepared by matched dilutions from a concentrated stock solution of 4b. For the fluorescence spectra, the excitation wavelength was offset from peak absorbance in that solvent by 10 nm; in toluene, the excitation wavelength was 496 nm; in acetonitrile,
Fluorescence emission spectra of HELIOS 400Me in PBS (pH 7.4), acetonitrile (dielectric constant 37.5), and toluene (dielectric constant 2.4) was measured (see FIG. 10). Emission spectra are the mean of 2 or 3 scans and the dashed lines represent +/−SEM. Instrument settings were adjusted to optimize sensitivity given the minimal fluorescence of the native HELIOS probe, and samples were prepared by matched dilution of a concentrated stock solution of HELIOS 400Me into the respective solvents. […] J. Meskers, E. H. A. Beckers, S. Chopin, R. A. J. Janssen, J. Phys. Chem. A 2006, 110, 12363].

On to `Cc1c(-c2cccc(-c3nncnn3)c2)c(=O)oc2c(F)c(O)c(F)cc12` [HELIOS 370H], for which, in data set [1] (100 nM in PBS, no wash), the staining pattern result is reported as “bright, membrane specific staining”. Also, the “time until specific staining evident” value in data set [1] (100 nM probe in PBS, fixed A431 cells, cetuximab-TCO) is at most 10 s. In data set [1] (after extended incubation), the nonspecific binding result is “no nonspecific binding”. In addition, in data set [2] (turn-on testing of freshly purified stock solutions), the “fluorogenic turn-on ratio of purified stock prior to imaging” value is reported as over 1000 fold. For the same molecule, in data set [3] (stock solutions in PBS), the measured extinction coefficient was found to be 19000 M⁻¹ cm⁻¹.

In the case of `Cc1c(-c2cccc(-c3nncnn3)c2)c(=O)oc2cc3c(cc12)CCCN3` [HELIOS 388H], the “time until mitochondrial labeling evident” value in data set [4] (100 nM, fixed and permeabilized OVCA-429 cells) was at most 2 min. Also, in data set [4] (OVCA-429 cells expressing RFP), the “colocalization with mitochondria-specific RFP” value is given as “good colocalization”. Moreover, in data set [4] (serial images up to an hour from dye addition), the “target to background ratio over time” value is listed as “stable target to background ratios”.

In the case of `Cc1nnc(-c2ccc(-c3c(C)c4cc5c6c(c4oc3=O)CCCN6CCC5)cc2)nn1` [HELIOS 400pMe], in data set [2], the “peak turn-on ratio upon reaction with TCOc” value was 1,000 fold. In data set [5], the “Solubility in phosphate buffered saline” value is “soluble”.

In the case of `Cc1nnc(-c2cccc(-c3c(C)c4cc(F)c(O)c(F)c4oc3=O)c2)nn1` [HELIOS 370Me], the “Φ w/TCOc” value in data set [6] is 0.49. In data set [2], the “peak turn-on ratio upon reaction with TCOc” value is listed as 2,900 fold and the “Fluorescence Enhancement” value is recorded as 2,900-fold. Also, in data set [3], the ε was 19,000, the Peak Em Wavelength came out at 463 nm and the Peak Ex Wavelength came to 370 nm.

With `Cc1nnc(-c2cccc(-c3c(C)c4cc5c6c(c4oc3=O)CCCN6CCC5)c2)nn1` [HELIOS 400Me], the “peak turn-on ratio upon reaction with TCOc” value in data set [2] is 4,000 fold. The “Solubility in phosphate buffered saline” value in data set [5] is “soluble”. The “dependence of fluorescence emission intensity on solvent polarity” value in data set [7] is reported as “largely independent of solvent polarity”.

Regarding `Cc1nnc(-c2cccc(-c3c(C)c4cc5c(cc4oc3=O)NCCC5)c2)nn1` [HELIOS 388Me], the “Φ w/TCOc” value in data set [6] is reported as 0.38. In data set [2], the “peak turn-on ratio upon reaction with TCOc” value is recorded as 11,000 fold and the “Fluorescence Enhancement” value is given as 11,000-fold. Also, in data set [3], the ε is on record as 20,000, the Peak Em Wavelength was 482 nm and the Peak Ex Wavelength was found to be 388 nm.

Turning to `Cc1c(CC(=O)NCc2ccc(-c3nncnn3)cc2)c(=O)oc2c(F)c(O)c(F)cc12` [Marina Blue-Tz, reference compound], in data set [2], the “peak turn-on ratio upon reaction with TCOc” value turned out to be 60 fold and the “Fluorescence Enhancement” value is recorded as 60-fold. In data set [3], this molecule gave a Peak Em Wavelength of 459 nm and a Peak Ex Wavelength of 362 nm.

As for `Cc1nnc(-c2cccc(-c3c(C)c4ccc(N)cc4oc3=O)c2)nn1` [HELIOS 347Me], the “Φ w/TCOc” value in data set [6] is 0.29. Besides, in data set [2], the “peak turn-on ratio upon reaction with TCOc” value is reported as 2,500 fold and the “Fluorescence Enhancement” value is 2,500-fold. In data set [3], the ε was 18,500, the Peak Em Wavelength stood at 455 nm and the Peak Ex Wavelength is 347 nm.
